Results reported in paper PMC7252906 (Toxicology and applied pharmacology, 2019).
Where “and” joins values, the source holds several entries; their conditions need not be identical. Identical values can stand only once. Like-named read-outs stand apart in the source and are kept apart here.

Tests used:
[1] = Radiochemical HPLC profiling of urine after [^14C]DMAE; conditions: Oral
[2] = as above; format: in vivo, Harlan Sprague Dawley rats
[3] = Formation of N,N-dimethylnitrosamine after oral DMAE; format: in vivo; conditions: rats, oral DMAE 10 to 500 mg/kg; limit of quantitation 5 pg/mL
rodents = conditions: ref NTP 2002; cited from earlier work
[4] = female mice, gavage 160 mg/kg, 24 h
[5] = for residual radioactivity remaining in tissues (excluding GI tract): male and female rats
[6] = DMAE dose 0, listed as [^14C]choline, 160 mg/kg
[7] = DMAE pre-treatment 500 mg/kg, 1 h prior
[8] = female rats, IV 16 mg/kg, 24 h, DMAE dose 0
[9] = female rats, IV 16 mg/kg, 24 h, DMAE dose 0, listed as [^14C]choline, 16 mg/kg
[10] = female rats, gavage 160 mg/kg, 24 h, DMAE dose 0
[11] = female rats, gavage 160 mg/kg, 24 h, DMAE dose 0, listed as [^14C]choline, 160 mg/kg
[12] = female rats, gavage 160 mg/kg, 24 h, DMAE pre-treatment 100 mg/kg
[13] = female rats, gavage 160 mg/kg, 24 h, DMAE pre-treatment 500 mg/kg
[14] = male rats, IV 16 mg/kg, 24 h, DMAE dose 0
[15] = male rats, gavage 160 mg/kg, 24 h, DMAE dose 0
[16] = male rats, gavage 160 mg/kg, 24 h, DMAE pre-treatment 100 mg/kg, 1 h prior
[17] = male rats, gavage 160 mg/kg, 24 h, DMAE pre-treatment 500 mg/kg, 1 h prior
[18] = male rats, gavage 160 mg/kg, 24 h, three DMAE pre-treatments 100 mg/kg 48, 24 and 1 h prior

**Q.** Which “Estimated percentage of area of DMAE Oxide peak in urine chromatogram” value (“Estimated percentage” for short) ([1]; Mouse/Female, [^14C]DMAE 10 mg/kg) does the source give for `C[N+](C)([O-])CCO` [DMAE Oxide] here?
**A.** The value was 92%.

**Q.** And the “Estimated percentage” value ([1]; Mouse/Female, [^14C]DMAE 100 mg/kg)?
**A.** The value was 18%.

**Q.** What about the “Estimated percentage” value ([1]; Mouse/Female, [^14C]DMAE 500 mg/kg) of the same molecule?
**A.** The value was 34%.

**Q.** And the “Estimated percentage” value ([1]; Mouse/Male, [^14C]DMAE 500 mg/kg)?
**A.** Its value is 0%.

**Q.** What about the “Estimated percentage” value ([1]; Mouse/Male, [^14C]DMAE 500 mg/kg, listed as DMAE oxide) of the same molecule?
**A.** Its value is “absent”.

**Q.** And the “Estimated percentage” value ([2]; Rat/Female, [^14C]DMAE 500 mg/kg, Oral)?
**A.** Its value is 45%.

**Q.** And the “Estimated percentage” value ([2]; Rat/Male, [^14C]DMAE 10 mg/kg, IV)?
**A.** Its value is 97%.

**Q.** What about the “Estimated percentage” value ([2]; Rat/Male, [^14C]DMAE 10 mg/kg, Oral) of the same molecule?
**A.** The value was 5%.

**Q.** What about the “Estimated percentage” value ([2]; Rat/Male, [^14C]DMAE 100 mg/kg, Oral) of the same molecule?
**A.** Its value is 44%.

**Q.** And the “Estimated percentage” value ([2]; Rat/Male, [^14C]DMAE 500 mg/kg, Oral)?
**A.** Its value is 66%.

**Q.** For `CN(C)N=O` [N,N-dimethylnitrosamine], which “N,N-dimethylnitrosamine detection” value [3] is on record?
**A.** The value was “not detected”.

**Q.** Which “oral LD50” value (rodents) does the source give for `C[N+](C)(C)CCO` [choline, N,N,N-trimethylaminoethanol] here?
**A.** Its value is 3400 to 3900 mg/kg.

**Q.** And the “% Dose Recovered, Tissues and GI Tract (includes contents)” value (“% Dose Recovered, Tissues and GI Tract” for short) ([4]; DMAE dose 0)?
**A.** Its value is 18.2 ± 2.90 % dose.

**Q.** And the “% Dose Recovered, CO2” value [4, 6]?
**A.** The value was 25 % dose and 24.5 ± 5.40 % dose.

**Q.** And the “% Dose Recovered, Urine” value [4, 6]?
**A.** The value was 32 % dose and 31.8 ± 11.1 % dose.

**Q.** What about the “% Dose Recovered, VOCs” value [4, 6] of the same molecule?
**A.** Its value is 4 % dose and 3.61 ± 3.75 % dose.

**Q.** What about the “% Dose Recovered, CO2” value [4, 7] of the same molecule?
**A.** Its value is 26.4 ± 8.60 % dose.

**Q.** What about the “% Dose Recovered, Tissues and GI Tract” value [4, 7] of the same molecule?
**A.** The value was 18.4 ± 9.80 % dose.

**Q.** And the “% Dose Recovered, VOCs” value [4, 7]?
**A.** The value was 2.41 ± 1.77 % dose.

**Q.** What about the “% Dose Recovered, Urine” value ([4]; DMAE pre-treatment 500 mg/kg, 1 h prior, listed as [^14C]choline) of the same molecule?
**A.** Its value is 32 % dose and 32.4 ± 7.20 % dose.

**Q.** And the “recovery in tissues (excluding GI tract)” value ([4]; [^14C]choline alone)?
**A.** Its value is 15%.

**Q.** And the “% Dose Recovered, CO2” value [5, 8]?
**A.** Its value is 28.1 ± 2.90 % dose.

**Q.** What about the “% Dose Recovered, Tissues and GI Tract” value [5, 8] of the same molecule?
**A.** The value was 54.0 ± 5.50 % dose.

**Q.** What about the “% Dose Recovered, VOCs” value [5, 8] of the same molecule?
**A.** The value was 0.284 ± 0.038 % dose.

**Q.** What about the “% Dose Recovered, Total Recovered” value [5, 9] of the same molecule?
**A.** The value was 90.1 ± 6.10 % dose.

**Q.** What about the “% Dose Recovered, Urine” value [5, 9] of the same molecule?
**A.** Its value is 7 % dose and 7.45 ± 2.58 % dose.

**Q.** What about the “% Dose Recovered, Tissues and GI Tract” value [5, 10] of the same molecule?
**A.** Its value is 26.1 ± 3.80 % dose.

**Q.** What about the “% Dose Recovered, Total Recovered” value [5, 10] of the same molecule?
**A.** Its value is 91.3 ± 9.60 % dose.

**Q.** What about the “% Dose Recovered, VOCs” value [5, 10] of the same molecule?
**A.** The value was 0.325 ± 0.025 % dose.

**Q.** And the “% Dose Recovered, CO2” value [5, 11]?
**A.** Its value is 18 % dose and 17.8 ± 1.70 % dose.

**Q.** What about the “% Dose Recovered, Urine” value [5, 11] of the same molecule?
**A.** The value was 34 % dose and 34.2 ± 7.90 % dose.

**Q.** And the “% Dose Recovered, Tissues and GI Tract” value [5, 12]?
**A.** The value was 24.7 ± 2.70 % dose.

**Q.** What about the “% Dose Recovered, Total Recovered” value [5, 12] of the same molecule?
**A.** Its value is 92.9 ± 4.80 % dose.

**Q.** And the “% Dose Recovered, VOCs” value [5, 12]?
**A.** Its value is 0.268 ± 0.026 % dose.

**Q.** What about the “dose recovered in tissues (excluding GI tract)” value [5, 12] of the same molecule?
**A.** Its value is 21%.

**Q.** And the “% Dose Recovered, CO2” value [5, 13]?
**A.** Its value is 22.4 ± 3.60 % dose.

**Q.** And the “% Dose Recovered, Tissues and GI Tract” value [5, 13]?
**A.** Its value is 25.9 ± 4.70 % dose.

**Q.** And the “% Dose Recovered, Total Recovered” value [5, 13]?
**A.** Its value is 94.1 ± 4.80 % dose.

**Q.** What about the “% Dose Recovered, Urine” value [5, 13] of the same molecule?
**A.** Its value is 43.3 ± 5.60 % dose.

**Q.** What about the “% Dose Recovered, VOCs” value [5, 13] of the same molecule?
**A.** The value was 0.227 ± 0.057 % dose.

**Q.** And the “recovery in tissues other than the GI tract” value ([5]; female rats, gavage 160 mg/kg, 24 h, [^14C]choline alone)?
**A.** The value was ~ 21%.

**Q.** And the total dose recovered ([5]; female rats, gavage 160 mg/kg, range over groups)?
**A.** Its total dose recovered is 91–94%.

**Q.** And the “residual radioactivity remaining in tissues (excluding GI tract)” value ([5]; IV 16 mg/kg, 24 h)?
**A.** The value was 48–49%.

**Q.** And the “residual radioactivity remaining in tissues (excluding GI tract)” value ([5]; oral gavage, 24 h)?
**A.** The value was 17–21%.

**Q.** What about the “% Dose Recovered, CO2” value [5, 14] of the same molecule?
**A.** The value was 17.4 ± 2.40 % dose.

**Q.** What about the “% Dose Recovered, Tissues and GI Tract” value [5, 14] of the same molecule?
**A.** Its value is 56.2 ± 9.90 % dose.

**Q.** And the “% Dose Recovered, VOCs” value [5, 14]?
**A.** The value was 0.139 ± 0.035 % dose.

**Q.** What about the “% Dose Recovered, Urine” value ([5]; male rats, IV 16 mg/kg, 24 h, DMAE dose 0, listed as [^14C]choline, 16 mg/kg) of the same molecule?
**A.** Its value is 4 % dose and 3.92 ± 0.850 % dose.

**Q.** And the “% Dose Recovered, Tissues and GI Tract” value [5, 15]?
**A.** The value was 21.4 ± 2.80 % dose.

**Q.** What about the “% Dose Recovered, Total Recovered” value [5, 15] of the same molecule?
**A.** The value was 88.2 ± 5.50 % dose.

**Q.** And the “% Dose Recovered, CO2” value ([5]; male rats, gavage 160 mg/kg, 24 h, DMAE dose 0, listed as [^14C]choline, 160 mg/kg)?
**A.** Its value is 12.5 ± 2.20 % dose.

**Q.** And the “% Dose Recovered, CO2” value [5, 16]?
**A.** The value was 12.4 ± 1.70 % dose.

**Q.** What about the “% Dose Recovered, Tissues and GI Tract” value [5, 16] of the same molecule?
**A.** Its value is 20.4 ± 5.60 % dose.

**Q.** And the “% Dose Recovered, Urine” value [5, 16]?
**A.** Its value is 31.9 ± 4.60 % dose.

**Q.** And the “% Dose Recovered, VOCs” value [5, 16]?
**A.** Its value is 0.018 ± 0.003 % dose.

**Q.** What about the “% Dose Recovered, CO2” value [5, 17] of the same molecule?
**A.** Its value is 15.1 ± 4.00 % dose.

**Q.** And the “% Dose Recovered, Tissues and GI Tract” value [5, 17]?
**A.** The value was 20.0 ± 3.80 % dose.

**Q.** What about the “% Dose Recovered, Urine” value [5, 17] of the same molecule?
**A.** Its value is 40.7 ± 6.30 % dose.

**Q.** And the “% Dose Recovered, VOCs” value [5, 17]?
**A.** Its value is 0.065 ± 0.002 % dose.

**Q.** What about the “dose recovered in tissues (excluding GI tract)” value ([5]; male rats, gavage 160 mg/kg, 24 h, [^14C]choline alone) of the same molecule?
**A.** The value was ~ 18%.

**Q.** And the “dose recovered in feces” value ([5]; male rats, gavage 160 mg/kg, 24 h, pre-treatment with multiple doses of 100 mg/kg or a single dose of 500 mg/kg DMAE)?
**A.** Its value is 10–12%.

**Q.** What about the “% Dose Recovered, CO2” value [5, 18] of the same molecule?
**A.** Its value is 17.0 ± 1.70 % dose.

**Q.** And the “% Dose Recovered, Tissues and GI Tract” value [5, 18]?
**A.** Its value is 26.6 ± 5.30 % dose.

**Q.** What about the “% Dose Recovered, Total Recovered” value [5, 18] of the same molecule?
**A.** Its value is 93.7 ± 2.70 % dose.

**Q.** What about the “% Dose Recovered, Urine” value [5, 18] of the same molecule?
**A.** The value was 39.9 ± 3.80 % dose.

**Q.** What about the “% Dose Recovered, VOCs” value [5, 18] of the same molecule?
**A.** The value was “below the limit of detection”.
